From ChEMBL document CHEMBL1201862, “PubChem BioAssay data set” (2004) come the findings set out here.

Some test systems named below: A498; CCRF-CEM; COLO 205; HT-29; KM12; M14; MCF7; MDA-N; MOLT-4; NCI-H460; OVCAR-3; OVCAR-8; PC-3; RXF 393; SF-539; SK-MEL-5; SN12C; UACC-62; SR.
Assay in all cases: inhibition of tumour cell growth, NCI panel, 48 h

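These data come from cells grown in 96-well plates and exposed to compound for 48 hours at five concentrations. Abbreviation: GI50, concentration required for 50% inhibition of growth.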 Activity calls are given as the source filed them. No stated cut-off is given here; in the data, active = GI50 up to about 1.1 µM and inactive = higher.

Regarding `CCC(=O)OCN1C(=O)C=CC1=O`, the GI50 in the assay on A498 is > 44.5 µM (inactive); with CCRF-CEM it was 0.445 µM (active); in the assay on COLO 205, 4.28 µM (inactive); in the assay on HT-29, 17.9 µM (inactive); in the assay with KM12 it was 16.7 µM (inactive); in the assay with M14, 18.3 µM (inactive). The GI50 is 20.1 µM (inactive) with MCF7; 16.9 µM (inactive) in the assay with MDA-N; 2.3 µM (inactive) in the assay with MOLT-4; 18.6 µM (inactive) in the assay on NCI-H460; 7.16 µM (inactive) with OVCAR-3; 18.3 µM (inactive) with OVCAR-8. Also, the GI50 is 17.1 µM (inactive) with PC-3; 16.2 µM (inactive) in the assay with RXF 393; 18.3 µM (inactive) with SF-539; 27.5 µM (inactive) with SK-MEL-5; 18.4 µM (inactive) in the assay with SN12C; 17 µM (inactive) in the assay on UACC-62.

As for `O=C(c1nsc(Cl)c1Cl)N1CCCCC1`, the GI50 in the assay with CCRF-CEM, in the assay on COLO 205, with HT-29, in the assay on KM12, with M14 and in the assay with MCF7 was > 100 µM (inactive) throughout. Further, the GI50 in the assay on MDA-N, in the assay on MOLT-4, in the assay with OVCAR-3, in the assay with OVCAR-8, in the assay with PC-3 and with RXF 393 was > 100 µM (inactive) in each case. Further, the GI50 with SF-539, with SK-MEL-5, in the assay on SN12C, with SR and in the assay with UACC-62 was > 100 µM (inactive) in each case.

In the case of `C/C(=N/S(=O)(=O)c1ccc(Cl)c(Cl)c1)OCC(C)(C)C`, the GI50 with A498, in the assay on CCRF-CEM, in the assay on COLO 205, in the assay on HT-29, with KM12 and in the assay with M14 was > 100 µM (inactive) throughout. Moreover, the GI50 with MCF7, in the assay on MDA-N, with MOLT-4, in the assay with NCI-H460, with OVCAR-3 and in the assay on OVCAR-8 was > 100 µM (inactive) throughout. Also, the GI50 with PC-3, in the assay with RXF 393, in the assay on SF-539, in the assay on SK-MEL-5, in the assay with SN12C and with UACC-62 was > 100 µM (inactive) in each case.

For the molecule `O=C1CC2(CCCc3sccc32)C(=O)N1` (stereo unspecified), the GI50 with A498, in the assay with CCRF-CEM, in the assay with COLO 205, in the assay with HT-29, with KM12 and with M14 was > 100 µM (inactive) each time. Also, the GI50 in the assay with MCF7, with MDA-N, with MOLT-4, with NCI-H460, in the assay with OVCAR-3 and in the assay on OVCAR-8 was > 100 µM (inactive) throughout. The GI50 in the assay on PC-3, in the assay on RXF 393, with SF-539, in the assay on SK-MEL-5, with SN12C and in the assay on UACC-62 was > 100 µM (inactive) in each case.

As to `CCSc1[nH]c(NC(=S)NC(=O)c2ccccc2Cl)c(C(N)=O)c1C(N)=O`, the GI50 with CCRF-CEM, in the assay on COLO 205, with HT-29, in the assay with KM12, in the assay with M14 and in the assay with MCF7 was > 10 µM (inactive) in each case. The GI50 in the assay with MDA-N is > 10 µM (inactive); with MOLT-4, > 10 µM (inactive); in the assay with OVCAR-8, > 10 µM (inactive); in the assay with PC-3 it was > 10 µM (inactive); in the assay on RXF 393, 4.2 µM (inactive); in the assay with SK-MEL-5, > 10 µM (inactive). Besides, the GI50 in the assay on SN12C, with SR and in the assay with UACC-62 was > 10 µM (inactive) in each case.

Regarding `O=C1C(C(c2ccccc2)N2CCOCC2)=C(O)C(c2ccccc2)N1c1ccccc1` (stereo unspecified), the GI50 with A498, in the assay with CCRF-CEM, with COLO 205, in the assay on HT-29, in the assay on KM12 and in the assay on M14 was > 10 µM (inactive) throughout. In addition, the GI50 is > 10 µM (inactive) with MCF7; > 10 µM (inactive) in the assay with MDA-N; 4.31 µM (inactive) in the assay with MOLT-4; > 10 µM (inactive) in the assay on NCI-H460; > 10 µM (inactive) with OVCAR-3; > 10 µM (inactive) in the assay with OVCAR-8. Further, the GI50 in the assay on PC-3, in the assay with RXF 393, in the assay on SF-539, with SK-MEL-5, in the assay with SN12C and with UACC-62 was > 10 µM (inactive) in each case.

As for `Cc1cnccc1/N=N/c1ccc(N(C)C)cc1`, the GI50 with A498 was 28.3 µM (inactive); with CCRF-CEM, 37 µM (inactive); with COLO 205 it was 11.9 µM (inactive); with HT-29 it was 23.1 µM (inactive); in the assay with KM12, 20.3 µM (inactive); in the assay on M14 it was 41.5 µM (inactive). The GI50 in the assay on MCF7 is 14.4 µM (inactive); with MDA-N it was 8.32 µM (inactive); with MOLT-4, 31.3 µM (inactive); in the assay on NCI-H460, 25.7 µM (inactive); with OVCAR-3, 19.6 µM (inactive); with OVCAR-8 it was 22.1 µM (inactive). The GI50 is 26.6 µM (inactive) in the assay with PC-3; 14.9 µM (inactive) with RXF 393; 19.6 µM (inactive) with SF-539; 15 µM (inactive) in the assay on SK-MEL-5; 21.9 µM (inactive) in the assay with SN12C; 13.8 µM (inactive) in the assay on UACC-62.

For `COC(=O)C1(O)C(c2ccccc2)NC2(C)CCCC21` (stereo unspecified), the GI50 in the assay with A498, in the assay on CCRF-CEM, in the assay on COLO 205, with KM12, in the assay on M14 and in the assay on MCF7 was > 100 µM (inactive) each time. The GI50 in the assay on MDA-N, in the assay with MOLT-4, in the assay on OVCAR-8, in the assay on PC-3, with RXF 393 and in the assay with SF-539 was > 100 µM (inactive) in each case. Further, the GI50 with SK-MEL-5, in the assay on SN12C and in the assay with UACC-62 was > 100 µM (inactive) in each case.

For the molecule `O=C(Nc1ccccc1F)c1cc2ccc(O)cc2o/c1=N\c1ccccc1F`, the GI50 with CCRF-CEM was 1.5 µM (inactive); with COLO 205, 21.8 µM (inactive); in the assay on HT-29 it was 17.2 µM (inactive); with KM12, 1.98 µM (inactive); with M14 it was 2.55 µM (inactive); with MCF7, 3.2 µM (inactive). For the same molecule, the GI50 with MDA-N is 2.29 µM (inactive); in the assay with MOLT-4, 1.74 µM (inactive); in the assay with NCI-H460, 2.25 µM (inactive); in the assay on OVCAR-3, 2.1 µM (inactive); with OVCAR-8, 1.77 µM (inactive); with PC-3, 2.58 µM (inactive). Moreover, the GI50 with SF-539 is 3.33 µM (inactive); in the assay with SK-MEL-5 it was 1.77 µM (inactive); with SR it was 1.87 µM (inactive); in the assay on UACC-62, 2.37 µM (inactive).

Turning to `CC1=CC(=O)/C(=C/N2CCNC2=S)C(=O)O1`, the GI50 in the assay on A498, in the assay on CCRF-CEM, with COLO 205, in the assay on HT-29, in the assay with KM12 and in the assay on M14 was > 100 µM (inactive) each time. Also, the GI50 with MCF7, with MDA-N, in the assay on MOLT-4, in the assay on NCI-H460, in the assay with OVCAR-8 and with PC-3 was > 100 µM (inactive) each time. The GI50 was > 100 µM (inactive) in the assay with RXF 393; > 100 µM (inactive) with SF-539; 97.3 µM (inactive) with SK-MEL-5; > 100 µM (inactive) in the assay with SN12C; > 100 µM (inactive) with UACC-62.

Turning to `COc1cccc(C=C(C#N)C#N)c1OC`, the GI50 in the assay on CCRF-CEM is 83.6 µM (inactive); with COLO 205, > 100 µM (inactive); in the assay with HT-29, > 100 µM (inactive); in the assay on KM12 it was > 100 µM (inactive); in the assay with M14, > 100 µM (inactive); in the assay on MCF7 it was > 100 µM (inactive). Further, the GI50 in the assay on MDA-N, in the assay on MOLT-4, in the assay with NCI-H460, in the assay with OVCAR-3, in the assay on OVCAR-8 and in the assay on PC-3 was > 100 µM (inactive) in each case. Also, the GI50 in the assay on RXF 393, with SF-539, in the assay with SK-MEL-5, in the assay on SN12C, with SR and in the assay on UACC-62 was > 100 µM (inactive) each time.

With `O=c1c(Cc2ccc(Cl)cc2)nnc2sc(-c3ccc(-c4ccc(Cl)cc4Cl)o3)nn12`, the GI50 is 41.5 µM (inactive) in the assay on A498; 61.7 µM (inactive) with CCRF-CEM; 72.3 µM (inactive) in the assay on COLO 205; 64.1 µM (inactive) with HT-29; 76.6 µM (inactive) with KM12; 95.5 µM (inactive) in the assay on M14. Also, the GI50 in the assay with MCF7 is 30.5 µM (inactive); with MDA-N it was 48 µM (inactive); in the assay with MOLT-4 it was 43.7 µM (inactive); with NCI-H460, 59.6 µM (inactive); in the assay on OVCAR-3, 34 µM (inactive); in the assay on OVCAR-8, 48.6 µM (inactive). The GI50 with PC-3 is 79.8 µM (inactive); in the assay on RXF 393, 53.8 µM (inactive); in the assay on SF-539 it was 85.7 µM (inactive); with SK-MEL-5, > 100 µM (inactive); in the assay on SN12C it was 44.6 µM (inactive); in the assay with UACC-62 it was 63.1 µM (inactive).
